A short description of series [1]: Risdiplam solubility data. It counts as physicochemical.
Series [2] is described as follows: Storage stability of crystalline Form H by IR spectrum. In kind it is physicochemical. The method, then: In yet another aspect, the crystalline Form H of Risdiplam is characterized by the IR spectrum at 834 cm^−1, 880 cm^−1, 926 cm^−1, 1210 cm^−1, 1227 cm^−1, 1674 cm^−1, 2824 cm^−1, 3283 cm^−1; as illustrated in FIGS. 2A and 2B. The IR spectrum of Risdiplam Form H was conducted after 6 months of storage.
In yet another embodiment, the crystalline Form H of Risdiplam is characterized by the IR spectrum at 834 cm^−1, 880 cm^−1, 926 cm^−1, 1210 cm^−1, 1227 cm^−1, 1674 cm^−1, 2824 cm^−1, 3283 cm^−1 as illustrated in FIGS. 2A and 2B. The IR spectrum of Risdiplam Form H illustrated in FIG. 2B was conducted after 6 months of storage.

In brackets after ≈: the same amount, converted by molar mass. Read-outs that look alike come from different tables or passages of the source.

One may read the solubility as the concentration that dissolves in the medium under given conditions.

In series [1] (solvent: ethanol), `Cc1cn2nc(-c3cc(=O)n4cc(N5CCNC6(CC6)C5)ccc4n3)cc(C)c2n1` [STD] yielded a Solubility in ethanol below 1000 µg/mL. This compound registered a Solubility in water in series [1] (solvent: water) below 100 µg/mL.

With `Cc1cn2nc(-c3cc(=O)n4cc(N5CCNC6(CC6)C5)ccc4n3)cc(C)c2n1` [crystalline Form H of Risdiplam, 7-(4,7-diazaspiro[2.5]octan-7-yl)-2-(2,8-dimethylimidazo[1,2-b]pyridazin-6-yl)pyrido-4H-[1,2-a]pyrimidin-4-one], in series [1] (solvent: ethanol, listed as 011/DS-C/IV/118/048), the Solubility in ethanol stood at 1400 µg/mL (≈ 3490 µM). In series [1] (solvent: water, listed as 011/DS-C/IV/118/048), this compound came in with a Solubility in water of 6 µg/mL (≈ 14.9 µM). In addition, the “change in the IR spectrum after storage (stability)” value in series [2] (after 6 months of storage, IR spectrum, FIG. 2A and 2B) is “No substantial change in the IR spectrum was observed”. In addition, the stability period result in series [2] (illustrated by IR spectrum in FIG. 2) is given as “stable up to a period of 6 months”.

For the compound `Cc1cn2nc(-c3cc(=O)n4cc(N5CCNC6(CC6)C5)ccc4n3)cc(C)c2n1` [011/DS-C/V/118/032, 7-(4,7-Diazaspiro[2,5]octan-7-yl)-2-(2,8-dimethylimidazo[1,2-b]pyridazin-6-yl)-pyrido[1,2-a]pyrimidin-4-one], the solubility in series [1] (ethanol, organic solvent or mixture, solvent: ethanol, read-out: Solubility in ethanol) was 1300 µg/mL (≈ 3240 µM); in series [1] (water, solvent: water, read-out: Solubility in water) it was 3 µg/mL (≈ 7.47 µM).

(Values after patent US20260308179A1, “NOVEL CRYSTALLINE FORM OF RISDIPLAM AND PROCESS FOR PREPARATION THEREOF” (HARMAN FINOCHEM LIMITED, priority 2023, published 2026).)
